PubChem BioAssay (NCI)
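Cultured in 96-well plates, cells were exposed to test compound for 48 hours across five concentrations. GI50 = concentration required for 50% inhibition of growth. TGI is the concentration that stops growth completely.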

How the values were obtained:
Test in all cases: DTP human tumour cell line panel, 48 h
786-0 renal = system: 786-0 renal
A498 renal = system: A498 renal
A549 NSCLC = system: A549 NSCLC
ACHN renal = system: ACHN renal
BT-549 breast = system: BT-549 breast
CAKI-1 renal = system: CAKI-1 renal
CCRF-CEM leukemia = system: CCRF-CEM leukemia
COLO 205 colon = system: COLO 205 colon
DU-145 prostate = system: DU-145 prostate
EKVX NSCLC = system: EKVX NSCLC
HCC-2998 colon = system: HCC-2998 colon
HCT-116 colon = system: HCT-116 colon
HCT-15 colon = system: HCT-15 colon
HL-60(TB) leukemia = system: HL-60(TB) leukemia
HOP-62 NSCLC = system: HOP-62 NSCLC
HOP-92 NSCLC = system: HOP-92 NSCLC
HS 578T breast = system: HS 578T breast
HT29 colon = system: HT29 colon
IGROV1 ovarian = system: IGROV1 ovarian
K-562 leukemia = system: K-562 leukemia
KM12 colon = system: KM12 colon
LOX IMVI melanoma = system: LOX IMVI melanoma
M14 melanoma = system: M14 melanoma
MALME-3M melanoma = system: MALME-3M melanoma
MCF7 breast = system: MCF7 breast
MDA-MB-231 breast = system: MDA-MB-231 breast
MDA-MB-435 = system: MDA-MB-435
MDA-MB-468 breast = system: MDA-MB-468 breast
MOLT-4 leukemia = system: MOLT-4 leukemia
NCI-H226 lung = system: NCI-H226 lung
NCI-H23 lung = system: NCI-H23 lung
NCI-H460 lung = system: NCI-H460 lung
NCI-H522 lung = system: NCI-H522 lung
NCI/ADR-RES ovarian = system: NCI/ADR-RES ovarian
OVCAR-3 ovarian = system: OVCAR-3 ovarian
OVCAR-4 ovarian = system: OVCAR-4 ovarian
OVCAR-5 ovarian = system: OVCAR-5 ovarian
OVCAR-8 ovarian = system: OVCAR-8 ovarian
PC-3 prostate = system: PC-3 prostate
RPMI-8226 leukemia = system: RPMI-8226 leukemia
RXF 393 renal = system: RXF 393 renal
SF-268 CNS = system: SF-268 CNS
SF-295 CNS = system: SF-295 CNS
SF-539 CNS = system: SF-539 CNS
SK-MEL-2 melanoma = system: SK-MEL-2 melanoma
SK-MEL-28 melanoma = system: SK-MEL-28 melanoma
SK-MEL-5 melanoma = system: SK-MEL-5 melanoma
SK-OV-3 ovarian = system: SK-OV-3 ovarian
SN12C renal = system: SN12C renal
SNB-19 CNS = system: SNB-19 CNS
SNB-75 CNS = system: SNB-75 CNS
SR leukemia = system: SR leukemia
SW-620 colon = system: SW-620 colon
T-47D breast = system: T-47D breast
TK-10 renal = system: TK-10 renal
U251 CNS = system: U251 CNS
UACC-257 melanoma = system: UACC-257 melanoma
UACC-62 melanoma = system: UACC-62 melanoma
UO-31 renal = system: UO-31 renal

Compound: O=C(Nc1ccc(-c2ccc3c(c2)NC(=O)/C3=C\c2ccc[nH]2)cc1)Nc1ccc(Cl)c(C(F)(F)F)c1
- GI50 (786-0 renal): 3.09 µM
- TGI (786-0 renal): 10.2 µM
- GI50 (A498 renal): 2.35 µM
- TGI (A498 renal): 9.4 µM
- GI50 (A549 NSCLC): 1.56 µM
- TGI (A549 NSCLC): 3.56 µM
- GI50 (ACHN renal): 3 µM
- TGI (ACHN renal): 9.6 µM
- GI50 (BT-549 breast): 2.05 µM
- TGI (BT-549 breast): 6.15 µM
- GI50 (CAKI-1 renal): 2.92 µM
- TGI (CAKI-1 renal): 12.9 µM
- GI50 (CCRF-CEM leukemia): 2.57 µM
- TGI (CCRF-CEM leukemia): 9.6 µM
- GI50 (COLO 205 colon): 2.82 µM
- TGI (COLO 205 colon): 10.9 µM
- GI50 (DU-145 prostate): 2.13 µM
- TGI (DU-145 prostate): 4.99 µM
- GI50 (EKVX NSCLC): 0.243 µM
- TGI (EKVX NSCLC): 6.38 µM
- GI50 (HCC-2998 colon): 2.18 µM
- TGI (HCC-2998 colon): 6.15 µM
- GI50 (HCT-116 colon): 1.78 µM
- TGI (HCT-116 colon): 3.46 µM
- GI50 (HCT-15 colon): 1.6 µM
- TGI (HCT-15 colon): 4.04 µM
- GI50 (HL-60(TB) leukemia): 3.27 µM
- TGI (HL-60(TB) leukemia): 15 µM
- GI50 (HOP-62 NSCLC): 2.09 µM
- TGI (HOP-62 NSCLC): 8.75 µM
- GI50 (HOP-92 NSCLC): 1.23 µM
- TGI (HOP-92 NSCLC): 4.69 µM
- GI50 (HS 578T breast): 2.64 µM
- TGI (HS 578T breast): 16.1 µM
- GI50 (HT29 colon): 2.56 µM
- TGI (HT29 colon): 7.71 µM
- GI50 (IGROV1 ovarian): 4.05 µM
- TGI (IGROV1 ovarian): 17.4 µM
- GI50 (K-562 leukemia): 2.54 µM
- TGI (K-562 leukemia): 11.3 µM
- GI50 (KM12 colon): 2.24 µM
- TGI (KM12 colon): 10.6 µM
- GI50 (LOX IMVI melanoma): 1.73 µM
- TGI (LOX IMVI melanoma): 3.33 µM
- GI50 (M14 melanoma): 3.47 µM
- TGI (M14 melanoma): 14.4 µM
- GI50 (MALME-3M melanoma): 3.78 µM
- TGI (MALME-3M melanoma): 16.4 µM
- GI50 (MCF7 breast): 0.18 µM
- TGI (MCF7 breast): 1.63 µM
- GI50 (MDA-MB-231 breast): 2.23 µM
- TGI (MDA-MB-231 breast): 10.1 µM
- GI50 (MDA-MB-435): 2 µM
- TGI (MDA-MB-435): 4.67 µM
- GI50 (MDA-MB-468 breast): 0.033 µM
- TGI (MDA-MB-468 breast): 0.322 µM
- GI50 (MOLT-4 leukemia): 2.48 µM
- TGI (MOLT-4 leukemia): 11.4 µM
- GI50 (NCI-H226 lung): 1.33 µM
- TGI (NCI-H226 lung): 11.4 µM
- GI50 (NCI-H23 lung): 1.12 µM
- TGI (NCI-H23 lung): 3.12 µM
- GI50 (NCI-H460 lung): 0.489 µM
- TGI (NCI-H460 lung): 1.82 µM
- GI50 (NCI-H522 lung): 1.54 µM
- TGI (NCI-H522 lung): 3.67 µM
- GI50 (NCI/ADR-RES ovarian): 2.93 µM
- TGI (NCI/ADR-RES ovarian): 11.1 µM
- GI50 (OVCAR-3 ovarian): 1.57 µM
- TGI (OVCAR-3 ovarian): 3.62 µM
- GI50 (OVCAR-4 ovarian): 1.24 µM
- TGI (OVCAR-4 ovarian): 8.4 µM
- GI50 (OVCAR-5 ovarian): 2.18 µM
- TGI (OVCAR-5 ovarian): 10.5 µM
- GI50 (OVCAR-8 ovarian): 2.17 µM
- TGI (OVCAR-8 ovarian): 5.38 µM
- GI50 (PC-3 prostate): 1.83 µM
- TGI (PC-3 prostate): 6.69 µM
- GI50 (RPMI-8226 leukemia): 1.56 µM
- TGI (RPMI-8226 leukemia): 4.98 µM
- GI50 (RXF 393 renal): 2.25 µM
- TGI (RXF 393 renal): 5.34 µM
- GI50 (SF-268 CNS): 1.94 µM
- TGI (SF-268 CNS): 5.09 µM
- GI50 (SF-295 CNS): 2.84 µM
- TGI (SF-295 CNS): 10.2 µM
- GI50 (SF-539 CNS): 1.82 µM
- TGI (SF-539 CNS): 6.59 µM
- GI50 (SK-MEL-2 melanoma): 3.48 µM
- TGI (SK-MEL-2 melanoma): 14.2 µM
- GI50 (SK-MEL-28 melanoma): 3.04 µM
- TGI (SK-MEL-28 melanoma): 10.2 µM
- GI50 (SK-MEL-5 melanoma): 5.56 µM
- TGI (SK-MEL-5 melanoma): 18.8 µM
- GI50 (SK-OV-3 ovarian): 2.56 µM
- TGI (SK-OV-3 ovarian): 13.9 µM
- GI50 (SN12C renal): 1.71 µM
- TGI (SN12C renal): 3.53 µM
- GI50 (SNB-19 CNS): 3.6 µM
- TGI (SNB-19 CNS): 15.5 µM
- GI50 (SNB-75 CNS): 2.64 µM
- TGI (SNB-75 CNS): 17.4 µM
- GI50 (SR leukemia): 2.13 µM
- TGI (SR leukemia): 7.01 µM
- GI50 (SW-620 colon): 1.88 µM
- TGI (SW-620 colon): 3.89 µM
- GI50 (T-47D breast): 0.29 µM
- TGI (T-47D breast): 4.12 µM
- GI50 (TK-10 renal): 1.43 µM
- TGI (TK-10 renal): 7.55 µM
- GI50 (U251 CNS): 1.64 µM
- TGI (U251 CNS): 3.42 µM
- GI50 (UACC-257 melanoma): 2.77 µM
- TGI (UACC-257 melanoma): 9.01 µM
- GI50 (UACC-62 melanoma): 2.62 µM
- TGI (UACC-62 melanoma): 12.9 µM
- GI50 (UO-31 renal): 1.75 µM
- TGI (UO-31 renal): 14.3 µM
